Consider 27 compounds from patent US7985755B2, “2,4-diaminoquinazolines for spinal muscular atrophy” (Families of Spinal Muscular Atrophy, priority 2006, dated 2011).

Test [1] has as its system SMN2 promoter. Kind of test: SMN2 promoter assay in NSC-34 cells (β-lactamase reporter). The settings on record: read-out: Promoter Assay EC50. It is filed as cell-based, mouse. The method in brief:
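Compounds were tested for SMN2 promoter activation in NSC-34 cells, a mouse spinal cord–neuroblastoma hybrid line. The cells carry a plasmid in which a 3.4 kb SMN2 promoter fragment drives β-lactamase expression. CCF2-AM enters the cells and is converted by cytoplasmic esterase into an active β-lactamase substrate. Fold induction relative to vehicle (DMSO) control reflects the amount of β-lactamase made and therefore promoter activation.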

Test [2] has as its target T1, Human, recombinant dihydrofolate reductase (Homo sapiens, UniProt P00374).
T1 construct: purchased Sigma D6566
T1 sequence (P00374 1-187): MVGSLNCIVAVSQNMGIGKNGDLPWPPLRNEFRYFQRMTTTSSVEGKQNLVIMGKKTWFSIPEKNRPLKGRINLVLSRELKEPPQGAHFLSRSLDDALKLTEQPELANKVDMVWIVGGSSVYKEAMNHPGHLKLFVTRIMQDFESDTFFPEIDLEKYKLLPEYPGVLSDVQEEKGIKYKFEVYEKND
Kind of test: Human DHFR assay. In kind it is biochemical. The procedure:
The assay is an adaptation for 96-well plate format from Appleman et al. (Appleman, J R; Howell, E E; Kraut, J; Kuhl, M and Blakley, R L (1988) J. Biol. Chem. 263, 9187-9198). Human, recombinant dihydrofolate reductase (Sigma, D6566) was incubated along with test compounds ([…]) and NADPH (Sigma, N-7505) in 96-well plates. After a 10 min. pre-incubation at room temperature, dihydrofolic acid (Sigma, D7006) was added and the kinetic traces at 340 nm measured on a Spectra Max 190 plate reader at room temperature. Reaction rates were determined from the slopes of the linear portions of the progress curves. The final assay conditions were 0.014 units DHFR, 300 μM NADPH, 30 μM Dihydrofolic acid, 50 mM TRIS, pH 7.6, 100 mM NaCl and 1.25% DMSO. Each compound was measured in duplicates on every assay plate. Each assay plate contained 12 positive controls (DMSO only) and 12 negative controls (no dihydrofolic acid). All data was percent normalized with respect to controls and presented as percent inhibition. Inhibition data was analyzed using Prism and fit to a standard 4-parameter logistic equation to calculate IC50 values.

Test [3] has as its system SMN2 gene. The settings on record: cultured cells taken from patients with SMA type I; cited from earlier work.
The mark [4] stands for this setting: Mus musculus, Table 1, SMN2 promoter driving β-lactamase, 12 point dose curve.
[5] abbreviates: Mus musculus, Table 2, SMN2 promoter driving β-lactamase.
Setting [6] is: Table 3, SMN2 promoter driving β-lactamase.
Setting [7] is: Mus musculus, Table 3, SMN2 promoter driving β-lactamase.
The mark [8] stands for this setting: Mus musculus, Table 5, SMN2 promoter driving β-lactamase.

pEC50, pIC50: −log10 of the molar value. Where two headings read alike, the source gives them in different places.

Turning to `Nc1nc(N)c2c(OCC3CCN(Cc4c(Cl)cccc4Cl)CC3)cccc2n1` [Example-142], in test [1] (setting [4]), the pEC50 (as a rule, the EC50 on a negative log10 scale, so that one unit is a factor of ten) was over 6.00. In test [2] (Table 1, read-out: hDHFR IC50), the pIC50 (commonly the negative decadic logarithm of the IC50, by convention in mol/L) was under 4.00.

`Nc1nc(N)c2c(OCC3CCN(Cc4cc(F)ccc4F)CC3)cccc2n1` [Example-143]: the pEC50 in test [1] (setting [4]) is over 6.00. The pIC50 in test [2] (Table 1, read-out: hDHFR IC50) is 4.00 to 4.70.

For the compound `CCCCCCN1CCC(COc2cccc3nc(N)nc(N)c23)CC1` [Example-144], the pEC50 in test [1] (setting [4]) is over 6.00. The pIC50 in test [2] (Table 1, read-out: hDHFR IC50) was under 4.00.

With `Nc1nc(N)c2c(OCC3CCN(Cc4c(F)cccc4F)CC3)cccc2n1` [Example-147], in test [1] (setting [4]), the pEC50 was over 6.00. The pIC50 in test [2] (Table 1, read-out: hDHFR IC50) is under 4.00.

On to `Nc1nc(N)c2c(OCC3CCN(CC4CCNCC4)CC3)cccc2n1` [Example-151], for which, in test [1] (setting [4]), the pEC50 is over 6.00. Further, the pIC50 in test [2] (Table 1, read-out: hDHFR IC50) is under 4.00.

On to `Nc1nc(N)c2c(OC[C@H]3CC[C@H](Cc4cccc(Cl)c4)CC3)cccc2n1` [Example-153, 5-[4-(3-Chlorobenzyl)cyclohexylmethoxy]quinazoline-2,4-diamine], for which, in test [1] (setting [5]), the pEC50 was over 6.00. Also, in test [2] (Table 2, read-out: hDHFR IC50), the pIC50 was over 4.70.

For the compound `Nc1nc(N)c2c(OCC3CCC(Cc4ccccc4F)CC3)cccc2n1` (centres unmarked) [Example-154, 5-[4-(2-Fluorobenzyl)cyclohexylmethoxy]quinazoline-2,4-diamine], the pEC50 in test [1] (setting [5]) is over 6.00. For the same compound, the pIC50 in test [2] (Table 2, read-out: hDHFR IC50) is 4.00 to 4.70.

In the case of `Cc1cccc(C)c1CN1CCC(COc2cccc3nc(N)nc(N)c23)CC1` [Example-158], in test [1] (setting [6]), the negative logarithm of the EC50 (pEC50) is over 6.00. The pIC50 in test [2] (Table 3, read-out: hDHFR IC50) is under 4.00.

`Nc1nc(N)c2c(OCC3CCN(CC(F)F)CC3)cccc2n1` [Example-159]: the negative logarithm of the EC50 (pEC50) in test [1] (setting [6]) was over 6.00. For the same compound, the pIC50 in test [2] (Table 3, read-out: hDHFR IC50) was under 4.00.

As to `Nc1nc(N)c2c(OCC3CCN(Cc4c(F)cccc4C(F)(F)F)CC3)cccc2n1` [Example-160, 5-[1-(2-Fluoro-6-trifluoromethylbenzyl)piperidin-4-ylmethoxy]quinazoline-2,4-diamine], the pEC50 in test [1] (setting [7]) is over 6.00. Moreover, the pIC50 in test [2] (Table 3, read-out: hDHFR IC50) was under 4.00.

As for `Nc1nc(N)c2c(OCC3CCN(Cc4c(F)cccc4Cl)CC3)cccc2n1` [Example-161, 5-[1-(2-Chloro-6-fluorobenzyl)piperidin-4-ylmethoxy]quinazoline-2,4-diamine], the pEC50 in test [1] (setting [7]) is over 6.00. The negative-log IC50 (pIC50) in test [2] (Table 3, read-out: hDHFR IC50) was under 4.00.

On to `Nc1nc(N)c2c(OC[C@H]3CC[C@H](Cc4ccccc4Cl)CC3)cccc2n1` [Example-164, 5-[4-(2-Chlorobenzyl)cyclohexylmethoxy]quinazoline-2,4-diamine], for which, in test [1] (setting [5]), the pEC50 is over 6.00. Moreover, in test [2] (Table 2, read-out: hDHFR IC50), the negative-log IC50 (pIC50) was under 4.00.

For `Nc1nc(N)c2c(OCC3CCN(CC(F)(F)F)CC3)cccc2n1` [Example-165], the pEC50 in test [1] (setting [6]) is over 6.00. Besides, the pIC50 in test [2] (Table 3, read-out: hDHFR IC50) was under 4.00.

For the compound `COc1ccccc1CC1CCC(COc2cccc3nc(N)nc(N)c23)CC1` (centres unmarked) [Example-168, 5-[4-(2-Methoxybenzyl)-cyclohexylmethoxy]quinazoline-2,4-diamine], the pEC50 in test [1] (setting [5]) is over 6.00. Besides, the negative logarithm of the IC50 (pIC50) in test [2] (Table 2, read-out: hDHFR IC50) was over 4.70.

On to `Nc1nc(N)c2c(OCCN3CCN(S(=O)(=O)c4ccccc4F)CC3)cccc2n1` [Example-206, 5-{2-[4-(2-Fluoro-benzenesulfonyl)-piperazin-1-yl]-ethoxy}-quinazoline-2,4-diamine], for which the pEC50 in test [1] (setting [8]) was over 6.00. Further, in test [2] (Table 5, read-out: hDHFR IC50), the negative-log IC50 (pIC50) is over 4.70.

Consider `Nc1nc(N)c2c(OCCN3CCN(C(=O)c4ccc(F)cc4F)CC3)cccc2n1` [Example-207, {4-[2-(2,4-Diamino-quinazolin-5-yloxy)-ethyl]-piperazin-1-yl}-(2,4-difluoro-phenyl)-methanone], for which, in test [1] (setting [8]), the pEC50 is over 6.00. In addition, in test [2] (Table 5, read-out: hDHFR IC50), the pIC50 is 4.00 to 4.70.

Turning to `Nc1nc(N)c2c(OCCN3CCN(C(=O)c4ccc5c(c4)OCO5)CC3)cccc2n1` [Example-208, Benzo[1,3]dioxol-5-yl-{4-[2-(2,4-diamino-quinazolin-5-yloxy)-ethyl]-piperazin-1-yl}-methanone], in test [1] (setting [8]), the pEC50 is over 6.00. For the same compound, the pIC50 in test [2] (Table 5, read-out: hDHFR IC50) is over 4.70.

For the compound `Nc1nc(N)c2c(OCCN3CCN(S(=O)(=O)c4ccccc4)CC3)cccc2n1` [Example-209, 5-[2-(4-Benzenesulfonyl-piperazin-1-yl)-ethoxy]-quinazoline-2,4-diamine], the pEC50 in test [1] (setting [8]) was over 6.00. Moreover, the negative-log IC50 (pIC50) in test [2] (Table 5, read-out: hDHFR IC50) was over 4.70.

Regarding `Nc1nc(N)c2c(OCCN3CCN(S(=O)(=O)c4ccc(F)cc4F)CC3)cccc2n1` [Example-210, 5-{2-[4-(2,4-Difluoro-benzenesulfonyl)-piperazin-1-yl]-ethoxy}-quinazoline-2,4-diamine], the pEC50 in test [1] (setting [8]) was over 6.00. Also, in test [2] (Table 5, read-out: hDHFR IC50), the pIC50 is over 4.70.

Regarding `Nc1nc(N)c2c(OCCN3CCN(S(=O)(=O)c4ccc(Cl)c(Cl)c4)CC3)cccc2n1` [Example-211, 5-{2-[4-(3,4-Dichloro-benzenesulfonyl)-piperazin-1-yl]-ethoxy}-quinazoline-2,4-diamine], the pEC50 in test [1] (setting [8]) was over 6.00. For the same compound, the pIC50 in test [2] (Table 5, read-out: hDHFR IC50) is over 4.70.

As for `Nc1nc(N)c2c(OCCN3CCN(C(=O)c4ccc(Cl)c(Cl)c4)CC3)cccc2n1` [Example-212, {4-[2-(2,4-Diamino-quinazolin-5-yloxy)-ethyl]-piperazin-1-yl}-(3,4-dichloro-phenyl)-methanone], the pEC50 in test [1] (setting [8]) is over 6.00. In test [2] (Table 5, read-out: hDHFR IC50), the pIC50 was over 4.70.

Regarding `Nc1nc(N)c2c(OCCN3CCN(C(=O)c4ccccc4)CC3)cccc2n1` [Example-213, {4-[2-(2,4-Diamino-quinazolin-5-yloxy)-ethyl]-piperazin-1-yl}-phenyl-methanone], the pEC50 in test [1] (setting [8]) was over 6.00. The pIC50 in test [2] (Table 5, read-out: hDHFR IC50) is over 4.70.

Regarding `Nc1nc(N)c2c(OCCN3CCN(C(=O)c4ccc(Cl)cc4)CC3)cccc2n1` [Example-214, (4-Chloro-phenyl)-{4-[2-(2,4-diamino-quinazolin-5-yloxy)-ethyl]-piperazin-1-yl}-methanone], in test [1] (Table 5, SMN2 promoter driving β-lactamase), the pEC50 was over 6.00. Also, the pIC50 in test [2] (Table 5, read-out: hDHFR IC50) is over 4.70.

As to `Nc1nc(N)c2c(OCCN3CCN(C(=O)c4ccccc4F)CC3)cccc2n1` [Example-215, {4-[2-(2,4-Diamino-quinazolin-5-yloxy)-ethyl]-piperazin-1-yl}-(2-fluoro-phenyl)-methanone], the pEC50 in test [1] (setting [8]) is over 6.00. The pIC50 in test [2] (Table 5, read-out: hDHFR IC50) is over 4.70.

With `Nc1nc(N)c2c(OCCN3CCN(Cc4ccccc4F)CC3)cccc2n1` [Example-216, 5-{2-[4-(2-Fluoro-benzyl)-piperazin-1-yl]-ethoxy}-quinazoline-2,4-diamine], the pEC50 in test [1] (setting [8]) was over 6.00. The pIC50 in test [2] (Table 5, read-out: hDHFR IC50) is 4.00 to 4.70.

As for `Nc1nc(N)c2c(OCCN3CCN(Cc4ccc(F)cc4F)CC3)cccc2n1` [Example-217, 5-{2-[4-(2,4-Difluoro-benzyl)-piperazin-1-yl]-ethoxy}-quinazoline-2,4-diamine], the pEC50 in test [1] (setting [8]) is over 6.00. Also, the pIC50 in test [2] (Table 5, read-out: hDHFR IC50) is 4.00 to 4.70.

`CCCC(CCC)C(=O)O` [valproic acid]: the “increase in production of functional SMN protein” value in test [3] was 30 to 50%.
